Counter-ions that a name gives are not always drawn. Like-named read-outs stand apart in the source and are kept apart here.
Tests used:
rat dorsal aorta = target: T1, rat dorsal aorta (Rattus norvegicus, UniProt P22002); test: Calcium blockade in rat dorsal aorta (calcium activity in smooth muscle); format: cell-based; details: for Calcium (pA2): negative logarithm of molar concentration giving dose ratio of 2; for Kb: negative logarithm of molar concentration giving dose ratio of 2, read-out: Calcium (pA2) (converted)
T1 construct: from tissue; host or cells: rat dorsal aorta (smooth muscle)
T1 sequence (P22002 whole entry): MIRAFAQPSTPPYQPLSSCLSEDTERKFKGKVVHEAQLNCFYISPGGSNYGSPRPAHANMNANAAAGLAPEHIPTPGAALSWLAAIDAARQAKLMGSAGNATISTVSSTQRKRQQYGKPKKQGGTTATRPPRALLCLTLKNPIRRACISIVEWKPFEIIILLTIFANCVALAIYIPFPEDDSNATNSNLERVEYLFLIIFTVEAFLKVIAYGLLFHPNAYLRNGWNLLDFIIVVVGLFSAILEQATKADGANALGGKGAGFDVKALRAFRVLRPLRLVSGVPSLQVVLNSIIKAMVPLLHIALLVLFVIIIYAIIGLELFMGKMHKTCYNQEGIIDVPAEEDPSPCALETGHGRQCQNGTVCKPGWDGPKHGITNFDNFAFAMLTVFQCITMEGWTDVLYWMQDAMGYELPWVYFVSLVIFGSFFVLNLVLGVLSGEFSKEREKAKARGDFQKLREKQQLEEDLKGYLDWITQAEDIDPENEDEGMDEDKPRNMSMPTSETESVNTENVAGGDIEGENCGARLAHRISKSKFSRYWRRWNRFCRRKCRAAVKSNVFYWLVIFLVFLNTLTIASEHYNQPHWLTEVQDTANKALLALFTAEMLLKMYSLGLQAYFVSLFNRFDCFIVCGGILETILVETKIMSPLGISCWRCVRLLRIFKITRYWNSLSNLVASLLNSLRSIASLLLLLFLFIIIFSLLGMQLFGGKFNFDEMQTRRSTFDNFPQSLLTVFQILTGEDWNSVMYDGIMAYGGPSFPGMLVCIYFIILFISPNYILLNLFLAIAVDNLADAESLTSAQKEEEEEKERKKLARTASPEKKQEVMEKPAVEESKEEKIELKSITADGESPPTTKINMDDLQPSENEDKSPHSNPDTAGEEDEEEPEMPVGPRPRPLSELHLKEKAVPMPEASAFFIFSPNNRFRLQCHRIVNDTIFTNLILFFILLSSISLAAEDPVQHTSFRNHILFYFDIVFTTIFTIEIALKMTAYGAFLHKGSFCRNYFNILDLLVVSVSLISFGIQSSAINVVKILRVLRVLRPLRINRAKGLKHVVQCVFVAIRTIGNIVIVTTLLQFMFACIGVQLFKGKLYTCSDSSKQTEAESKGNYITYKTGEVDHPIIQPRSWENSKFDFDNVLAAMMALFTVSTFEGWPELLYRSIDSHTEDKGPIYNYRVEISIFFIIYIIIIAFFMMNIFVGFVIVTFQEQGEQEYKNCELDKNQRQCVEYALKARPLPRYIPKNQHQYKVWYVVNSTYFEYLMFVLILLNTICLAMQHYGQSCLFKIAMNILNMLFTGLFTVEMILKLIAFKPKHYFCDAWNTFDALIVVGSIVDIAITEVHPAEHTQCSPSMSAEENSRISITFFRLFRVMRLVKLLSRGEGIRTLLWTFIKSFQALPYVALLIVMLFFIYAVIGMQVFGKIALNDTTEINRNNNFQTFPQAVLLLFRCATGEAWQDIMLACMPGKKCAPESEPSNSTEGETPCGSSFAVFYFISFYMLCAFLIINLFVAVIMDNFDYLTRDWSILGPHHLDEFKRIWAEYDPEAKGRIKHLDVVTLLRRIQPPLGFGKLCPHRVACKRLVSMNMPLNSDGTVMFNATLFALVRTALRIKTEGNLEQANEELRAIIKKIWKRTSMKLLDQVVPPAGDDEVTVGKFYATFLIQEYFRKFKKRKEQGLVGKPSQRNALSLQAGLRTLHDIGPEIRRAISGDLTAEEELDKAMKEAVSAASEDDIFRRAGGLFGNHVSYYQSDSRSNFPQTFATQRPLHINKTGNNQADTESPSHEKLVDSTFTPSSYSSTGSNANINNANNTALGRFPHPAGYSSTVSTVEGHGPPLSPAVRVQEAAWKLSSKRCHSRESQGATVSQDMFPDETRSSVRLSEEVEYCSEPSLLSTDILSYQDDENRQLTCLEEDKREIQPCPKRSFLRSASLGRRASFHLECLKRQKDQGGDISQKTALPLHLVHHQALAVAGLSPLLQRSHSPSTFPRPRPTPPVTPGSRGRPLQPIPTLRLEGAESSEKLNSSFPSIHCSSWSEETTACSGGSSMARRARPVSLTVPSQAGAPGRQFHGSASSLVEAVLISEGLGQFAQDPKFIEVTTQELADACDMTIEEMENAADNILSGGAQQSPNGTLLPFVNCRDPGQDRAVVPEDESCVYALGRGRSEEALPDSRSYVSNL
T1 sequence (P54290 25-944 partner limits assumed): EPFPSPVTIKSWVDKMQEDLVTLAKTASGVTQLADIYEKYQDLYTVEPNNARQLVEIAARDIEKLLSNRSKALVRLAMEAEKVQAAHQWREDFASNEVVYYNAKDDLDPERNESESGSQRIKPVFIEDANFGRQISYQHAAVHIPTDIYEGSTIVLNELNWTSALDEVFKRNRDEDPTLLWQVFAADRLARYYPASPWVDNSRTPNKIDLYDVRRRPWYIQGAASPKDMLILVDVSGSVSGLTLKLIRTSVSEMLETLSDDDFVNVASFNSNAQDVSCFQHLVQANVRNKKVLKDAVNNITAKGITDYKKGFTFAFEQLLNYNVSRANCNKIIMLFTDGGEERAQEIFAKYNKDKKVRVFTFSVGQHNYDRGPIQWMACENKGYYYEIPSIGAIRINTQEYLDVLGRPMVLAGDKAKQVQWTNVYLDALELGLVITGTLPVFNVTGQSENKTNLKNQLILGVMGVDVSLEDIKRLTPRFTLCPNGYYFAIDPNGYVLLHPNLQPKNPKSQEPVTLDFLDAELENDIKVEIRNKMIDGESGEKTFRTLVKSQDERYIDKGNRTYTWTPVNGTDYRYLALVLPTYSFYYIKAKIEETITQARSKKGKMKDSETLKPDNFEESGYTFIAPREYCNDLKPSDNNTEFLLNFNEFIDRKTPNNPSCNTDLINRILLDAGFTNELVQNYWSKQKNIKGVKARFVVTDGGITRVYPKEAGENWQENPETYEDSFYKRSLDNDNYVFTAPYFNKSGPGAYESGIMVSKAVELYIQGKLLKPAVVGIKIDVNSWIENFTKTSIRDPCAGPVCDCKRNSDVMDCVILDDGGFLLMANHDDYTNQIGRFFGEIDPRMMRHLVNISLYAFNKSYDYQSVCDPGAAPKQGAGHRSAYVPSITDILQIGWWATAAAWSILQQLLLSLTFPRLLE
T1 sequence (P54290 945-1091 partner limits assumed): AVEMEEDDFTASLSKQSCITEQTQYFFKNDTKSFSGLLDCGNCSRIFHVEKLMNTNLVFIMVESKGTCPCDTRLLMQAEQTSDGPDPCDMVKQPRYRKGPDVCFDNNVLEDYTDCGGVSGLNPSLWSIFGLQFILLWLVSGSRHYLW
Experimental: (§1) Evaluation of these pharmacological properties was affected by means of both in vitro and in vivo biological screens. In vitro screening included calcium activity in various smooth muscle systems such as rat dorsal aorta, portal vein, and trachea; effects on blood platelets, β-binding affinities which were determined in rat heart and lung. […] The in vivo testing included vasodilating results in the ganglion-blocked, angiotensin-II supported rat and antihypertensive screening in the spontaneous hypertensive rat (SHR) or DOCA salt rats.

β-Receptor = target: T2, β-Receptor (Rattus norvegicus, UniProt P18090); test: β-Receptor binding in animal heart tissue
T2 construct: from tissue; host or cells: rat heart
T2 sequence (P18090 whole entry): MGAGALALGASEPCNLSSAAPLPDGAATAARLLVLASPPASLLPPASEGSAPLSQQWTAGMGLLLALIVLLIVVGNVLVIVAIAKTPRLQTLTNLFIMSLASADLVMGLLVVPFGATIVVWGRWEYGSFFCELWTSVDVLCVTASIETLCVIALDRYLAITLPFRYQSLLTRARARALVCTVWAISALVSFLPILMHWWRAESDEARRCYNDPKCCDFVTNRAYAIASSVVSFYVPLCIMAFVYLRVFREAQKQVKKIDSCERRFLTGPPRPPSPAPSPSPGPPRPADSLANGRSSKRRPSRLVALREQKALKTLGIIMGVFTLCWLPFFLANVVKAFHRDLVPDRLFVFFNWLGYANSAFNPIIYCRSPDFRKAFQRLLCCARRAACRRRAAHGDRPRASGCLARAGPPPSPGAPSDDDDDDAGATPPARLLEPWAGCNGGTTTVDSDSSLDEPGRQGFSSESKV
Experimental: as §1

[1] = tested on: mean arterial blood pressure, ganglion-blocked, angiotensin-II supported rat; test: Vasodilation in the angiotensin-supported ganglion-blocked rat; format: in vivo
Experimental: as §1

[2] = animal heart tissue, read-out: β Binding (IC50)
[3] = Rattus norvegicus, 0.5 h, 30 minutes after dosing, read-out: Vasodilation, % reduction in mean arterial blood pressure

Compound	Kb (rat dorsal aorta)	IC50 (β-Receptor; [2])	inhibition in vivo at 1 mg/kg [1, 3]	also measured
COC(=O)C1=C(C)NC(C)=C(C(=O)OCCCNCC(O)COc2cccc3c2C[C@H](O)[C@H](O)C3)C1c1cccc([N+](=O)[O-])c1 (relative stereo) [Example 64]				Calcium (pA2) (rat dorsal aorta): 7.3
COC(=O)C1=C(C)NC(C)=C(C(=O)OCC(C)(C)NCC(O)COc2ccccc2C#N)C1c1cccc([N+](=O)[O-])c1 (stereo not drawn) [Example 29]	0.00631 µM	0.02 µM	52%	
CCC1=C(C(=O)OCC(C)(C)NCC(O)COc2ccccc2C#N)C(c2cccc([N+](=O)[O-])c2)C(C(=O)OC)=C(C)N1 (stereo not drawn) [Example 30]	0.00398 µM	0.2 µM	50%	
COC(=O)C1=C(C)NC(C(C)C)=C(C(=O)OCC(C)(C)NCC(O)COc2ccccc2C#N)C1c1cccc([N+](=O)[O-])c1 (stereo not drawn) [Example 31]		0.8 µM	9%	
COC(=O)C1=C(C)NC(c2ccccc2)=C(C(=O)OCC(C)(C)NCC(O)COc2ccccc2C#N)C1c1cccc([N+](=O)[O-])c1 (stereo not drawn) [Example 32]		0.3 µM		inhibition in vivo at 10 mg/kg ([1]; Rattus norvegicus, 0.5 h, 30 minutes after dosing, at 10 mg/kg, read-out: Vasodilation, % reduction in mean arterial blood pressure): 22%
COC(=O)C1=C(C)NC(c2cccs2)=C(C(=O)OCC(C)(C)NCC(O)COc2ccccc2C#N)C1c1cccc([N+](=O)[O-])c1 (stereo not drawn) [Example 33]		0.07 µM	12%	
CCC1=C(C(=O)OCCNCC(O)COc2ccccc2C#N)C(c2cccc([N+](=O)[O-])c2)C(C(=O)OC)=C(C)N1 (stereo not drawn) [Example 34]	0.0126 µM	6 µM	17%	
CCC1=C(C(=O)OCCCNCC(O)COc2ccccc2C#N)C(c2cccc([N+](=O)[O-])c2)C(C(=O)OC)=C(C)N1 (stereo not drawn) [Example 35]		0.2 µM	28%	
CCC1=C(C(=O)OCC(C)(C)NCC(O)COc2ccccc2C)C(c2cccc([N+](=O)[O-])c2)C(C(=O)OC)=C(C)N1 (stereo not drawn) [Example 37]			58%	
CCC1=C(C(=O)OCC(C)(C)NCC(O)COc2ccccc2Br)C(c2cccc([N+](=O)[O-])c2)C(C(=O)OC)=C(C)N1 (stereo not drawn) [Example 38]		0.18 µM	55%	
CCC1=C(C(=O)OCC(C)(C)NCC(O)COc2ccc(CCOC)cc2)C(c2cccc([N+](=O)[O-])c2)C(C(=O)OC)=C(C)N1 (stereo not drawn) [Example 39]	0.00158 µM	0.4 µM	54%	
CCOC(=O)C1=C(C)NC(C)=C(C(=O)OCCCNCC(O)COc2ccccc2C)C1c1cccc([N+](=O)[O-])c1 (stereo not drawn) [Example 40]	0.02 µM		36%	
COC(=O)C1=C(C)NC(C)=C(C(=O)OCCCNCC(O)COc2cccc(C)c2)C1c1cccc([N+](=O)[O-])c1 (stereo not drawn) [Example 41]	0.00631 µM		28%	
COC(=O)C1=C(C)NC(C)=C(C(=O)OCCCNCC(O)COc2ccc(F)cc2C)C1c1cccc([N+](=O)[O-])c1 (stereo not drawn) [Example 42]	0.00398 µM		39%	
CCOC(=O)C1=C(C)NC(C)=C(C(=O)OCCCNCC(O)COc2ccccc2C#N)C1c1cccc([N+](=O)[O-])c1 (stereo not drawn) [Example 43]	0.00631 µM			
CCOC(=O)C1=C(C)NC(C)=C(C(=O)OCCc2ccc(OCC(O)CNC(C)(C)C)cc2)C1c1cccc([N+](=O)[O-])c1 (stereo not drawn) [Example 55, Ethyl [2-[4-[3-[(1,1-dimethylethyl)amino]-2-hydroxypropoxy]phenyl]ethyl]1,4-Dihydro-2,6-dimethyl-4-(3-nitrophenyl)-3,5-pyridinedicarboxylate Hydrochloride Hemihydrate]	0.0126 µM			Lethality in vasodilation test ([1]; 1.0 mg/kg): Lethal at 1.0 mg/kg
COC(=O)C1=C(C)NC(C)=C(C(=O)OCCCNCC(O)COc2cccc3ccccc23)C1c1cccc([N+](=O)[O-])c1 (stereo not drawn) [Example 59]				Calcium (pA2) (rat dorsal aorta): 7.3
COC(=O)C1=C(C)NC(C)=C(C(=O)OCCCNCC(O)COc2ccccc2C(F)(F)F)C1c1cccc([N+](=O)[O-])c1 (stereo not drawn) [Example 60]				Calcium (pA2) (rat dorsal aorta): 7.2
COC(=O)C1=C(C)NC(C)=C(C(=O)OCCCNCC(O)COc2ccccc2C2CCCCC2)C1c1cccc([N+](=O)[O-])c1 (stereo not drawn) [Example 61]				Calcium (pA2) (rat dorsal aorta): 7.6
C=CCc1ccccc1OCC(O)CNCCCOC(=O)C1=C(C)NC(C)=C(C(=O)OC)C1c1cccc([N+](=O)[O-])c1 (stereo not drawn) [Example 62]				Calcium (pA2) (rat dorsal aorta): 7.4
COC(=O)C1=C(C)NC(C)=C(C(=O)OCCCNCC(O)COc2cccc3c2CCCC3=O)C1c1cccc([N+](=O)[O-])c1 (stereo not drawn) [Example 63]				Calcium (pA2) (rat dorsal aorta): 8.8
COC(=O)C1=C(C)NC(C)=C(C(=O)OC)C1c1ccccc1[N+](=O)[O-] [Nifedipine, reference compound]				IC50 (β-Receptor): > 1 µM; inhibition in vivo at 0.1 mg/kg ([1]; Rattus norvegicus, 0.5 h, 30 minutes after dosing, at 0.1 mg/kg, read-out: Vasodilation, % reduction in mean arterial blood pressure): 23%

More lines, main results first:

Kb (rat dorsal aorta)	IC50 (β-Receptor; [2])	Compound	inhibition in vivo at 1 mg/kg [1, 3]	also measured
0.01 to 0.0158 µM	0.01 µM	COC(=O)C1=C(C)NC(C)=C(C(=O)OCCCNCC(O)COc2ccccc2C)C1c1cccc([N+](=O)[O-])c1 (stereo not drawn) [Example 44, Methyl [3-[[3-(2-Methylphenoxy)-2-hydroxypropyl]-amino]propyl]1,4-Dihydro-2,6-dimethyl-4-(3-nitrophenyl)-3,5-pyridinedicarboxylate Hydrochloride]	28%	
0.00631 µM	0.42 µM	CCC1=C(C(=O)OCC(C)(C)NCC(O)COc2ccc(CC(N)=O)cc2)C(c2cccc([N+](=O)[O-])c2)C(C(=O)OC)=C(C)N1 (stereo not drawn) [Example 45, [2-[3-[4-(Aminocarbonyl)methyl]phenoxy]-2-hydroxypropyl]amino]-2,2-dimethylethyl]^3 Methyl^5 2-Ethyl-1,4-dihydro-6-methyl-4-(3-nitrophenyl)-3,5-pyridinedicarboxylate Hemihydrate]	33%	
0.251 µM		COC(=O)C1=C(C)NC(C)=C(C(=O)OCCNC(=S)NCCNCC(O)COc2ccccc2C)C1c1cccc([N+](=O)[O-])c1 (stereo not drawn) [Example 46]	22%	
0.0126 µM	0.1 µM	CCOC(=O)C1=C(C)NC(C)=C(C(=O)OCCc2ccc(OCC(O)CNC(C)C)cc2)C1c1cccc([N+](=O)[O-])c1 (stereo not drawn) [Example 54, Ethyl [2-[4-[3-[2-Hydroxy.(1-methylethyl)-amino]propoxy]phenyl]ethyl]1,4-Dihydro-2,6-dimethyl-4-(3-nitrophenyl)-3,5-pyridine dicarboxylate Hydrochloride Hydrate]	57%	
0.01 µM	0.62 µM	CCOC(=O)C1=C(C)NC(C)=C(C(=O)OCCCC(=O)Nc2ccc(OCC(O)CNC(C)C)cc2)C1c1cccc([N+](=O)[O-])c1 (stereo not drawn) [Example 56, Ethyl [3-[[[4-[2-Hydroxy-3-[(1-methylethyl)amino]-propoxy]phenyl]amino]carbonyl]propyl]1,4-Dihydro-2,6-dimethyl-4-(3-nitrophenyl)-3,5-pyridinedicarboxylateHydrate]		
0.0501 µM	> 1 µM	CCC1=C(C(=O)OCC(C)(C)NC(=O)Cc2ccc(OCC(O)CNC(C)C)cc2)C(c2cccc([N+](=O)[O-])c2)C(C(=O)OC)=C(C)N1 (stereo not drawn) [Example 57, [2-[4-[2-Hydroxy-3-[(1-methylethyl)amino]propoxy]-phenyl]methyl]carbonyI]amino]-2,2-dimethylethyl]^3 Methyl^5 2-Ethyl-1,4-dihydro-6-methyl-4-(3-nitrophenyl)-3,5-pyridinedicarboxylate Hemihydrate]	11%	
	1 µM	CC(=O)Nc1ccc(OCC(O)CNC(C)C)cc1 (stereo not drawn) [Practolol, reference compound]		

Source: patent US4994476A, “Dihydropyridin-3,5-dicarboxylates incorporating aryloxypropanolamine moieties” (Bristol-Myers Company, priority 1985, dated 1991)
